US7820672B2, “Indolylmaleimide derivatives” (Novartis AG, priority 2003, dated 2010)

Key:
Human recombinant PKCθ = Human recombinant PKCθ (Homo sapiens, UniProt Q04759); assay: Protein Kinase C θ assay; format: biochemical
Experimental: (§1) The compounds of formula I are tested for their activity on different PKC isoforms according to a published method (D. Geiges et al. Biochem. Pharmacol. 1997; 53:865-875) The assay is performed in a 96-well polypropylene microtiterplate (Costar 3794) that has been previously siliconized with Sigmacote (Sigma SL-2). The reaction mixture (50 μl) contains 10 μl of the relevant PKC isozyme together with 25 μl of the test compound and 15 μl of a mix solution that contains 200 μg/ml protamine sulfate, 10 mM Mg(NO3)2, 10 μM ATP (Boehringer 519987) and 3750 Bq of ^33P-ATP (Hartmann Analytic SFC301, 110 TBq/mmol) in 20 mM Tris-buffer pH 7.4+0.1% BSA. Incubation is performed for 15 min at 32° C. in a microtiterplate shaking incubator (Biolabo Scientific Instruments). Reaction is stopped by adding 10 μl of 0.5 M Na2EDTA, pH 7.4. 50 μl of mixture are pipetted onto a pre-wetted phosphocellulose paper (Whatmann 3698-915) under gentle pressure. Non-incorporated ATP is washed away with 100 μl bi-dist H2O. The paper is washed twice in 0.5% H3PO4 for 15 min followed by 5 min in EtOH. Thereafter the paper is dryed and placed in an omnifilter (Packard 6005219), and overlayed with 10 μl/well of Microscint-O (Packard 6013611) before counting in a Topcount radioactivity counter (Packard). IC50 measurement is performed on a routine basis by incubating a serial dilution of inhibitor at concentrations ranging between 1-1000 μM according to the method described above. IC50 value are calculated from the graph by sigmoidal curve fitting.
Human recombinant PKCθ is used under the assay conditions as described above. In this assay, compounds of formula I inhibit PKC θ with an IC50≦1 μM.

lymph node enlargement = assay: Graft v. host model; format: in vivo, rat; conditions: days 0-3, lymph nodes removed day 7
Experimental: Spleen cells (2×10^7) from Wistar/F rats are injected subcutaneously into the right hind footpad of (Wistar/F×Fischer 344)F1 hybrid rats. The left footpad is left untreated. The animals are treated with the test compounds on 4 consecutive days (0-3). The popliteal lymph nodes are removed on day 7, and the weight differences between two corresponding lymph nodes are determined. The results are expressed as the inhibition of lymph node enlargement (given in percent) comparing the lymph node weight differences in the experimental groups to the weight difference between the corresponding lymph nodes from a group of animals left untreated with a test compound. In this assay, an inhibition of 100% is obtained with compound of Example 1 or 10 when administered at a dose of 30 or 10 mg/kg bid, respectively.

Human recombinant PKCβ1 = target: T1, Human recombinant PKCβ1 (Homo sapiens, UniProt P05771); assay: Protein Kinase Cβ1 assay; format: biochemical
T1 construct: purchased Oxford Biomedical Research
Experimental: as §1
Human recombinant PKCβ1 was obtained from Oxford Biomedical Research and is used under the assay conditions as described under Section A.1 above. In this assay, compounds of formula I inhibit PKCβ1 with an IC50≦1 μM.

[1] = system: Jurkat cells transfected with a human interleukin-2 promoter/reporter gene construct; assay: CD28 costimulation assay (IL-2 promoter/luciferase reporter); format: cell-based; conditions: stimulated Jurkat cells, luciferase reporter
Experimental: The assay is performed with Jurkat cells transfected with a human interleukin-2 promoter/reporter gene construct as described by Baumann G et al. in Transplant Proc. 1992; 24:43-8, the β-galactosidase reporter gene being replaced by the luciferase gene (de Wet J., et al., Mol. Cell Biol. 1987, 7(2), 725-737). Cells are stimulated by solid phase-coupled antibodies or phorbol myristate acetate (PMA) and the Ca^++ ionophore ionomycin as follows. For antibody-mediated stimulation Microlite TM1 microtiter plates (Dynatech) are coated with 3 μg/ml goat anti-mouse IgG Fc antibodies (Jackson) in 55 μl phosphate-buffered saline (PBS) per well for three hours at RT. Plates are blocked after removing the antibodies by incubation with 2% bovine serum albumin (BSA) in PBS (300 μl per well) for 2 hours at RT. After washing three times with 300 μl PBS per well, 10 ng/ml anti-T cell receptor antibodies (WT31, Becton & Dickinson) and 300 ng/ml anti-CD28 antibodies (15E8) in 50 μl 2% BSA/PBS are added as stimulating antibodies and incubated overnight at 4° C. Finally the plates are washed three times with 300 μl PBS per well. Seven three-fold serial dilutions of test compounds in duplicates in assay medium (RPMI 1640/10% fetal calf serum (FCS) containing 50 μM 2-mercaptoethanol, 100 units/ml penicillin and 100 μg/ml streptomycin) are prepared in separate plates, mixed with transfected Jurkat cells (clone K22 290_H23) and incubated for 30 minutes at 37° C. in 5% CO2. […] After incubation for 5.5 hours at 37° C. in 5% CO2, the level of luciferase is determined by bioluminescence measurement. […] Luciferase activity is assessed with a bioluminescence reader (Labsystem, Helsinki, Finland) after automatic addition of 50 μl per well luciferase reaction buffer containing 20 mM Tricine, 1.07 mM (MgCO3)4Mg(OH)2×5H2O, 2.67 mM MgSO4, 0.1 mM EDTA, 33.3 mM DTT, 270 μM coenzyme A, 470 μM luciferin (Chemie Brunschwig AG), 530 μM ATP, pH 7.8. […] The inhibition obtained in the presence of a test compound is calculated as percent inhibition of the high control. […]

[2] = system: spleen cells from CBA and BALB/c mice; assay: Allogeneic mixed lymphocyte reaction (MLR); format: cell-based; conditions: Mus musculus, two-way MLR, 3H-thymidine incorporation
Experimental: The two-way MLR is performed according to standard procedures (J. Immunol. Methods, 1973, 2, 279 and Meo T. et al., Immunological Methods, New York, Academic Press, 1979, 227-39). Briefly, spleen cells from CBA and BALB/c mice (1.6×10^5 cells from each strain per well in flat bottom tissue culture microtiter plates, 3.2×10^5 in total) are incubated in RPMI medium containing 10% FCS, 100 U/ml penicillin, 100 μg/ml streptomycin (Gibco BRL, Basel, Switzerland), 50 μM 2-mercaptoethanol (Fluka, Buchs, Switzerland) and serially diluted compounds. Seven three-fold dilution steps in duplicates per test compound are performed. After four days of incubation 1 μCi ^3H-thymidine is added. Cells are harvested after an additional five-hour incubation period, and incorporated ^3H-thymidine is determined according to standard procedures. Background values (low control) of the MLR are the proliferation of BALB/c cells alone. Low controls are subtracted from all values. High controls without any sample are taken as 100% proliferation. Percent inhibition by the samples is calculated, and the concentrations required for 50% inhibition (IC50 values) are determined.

Human recombinant PKCα = target: T2, Human recombinant PKCα (Homo sapiens, UniProt P17252); assay: Protein Kinase Cα assay; format: biochemical
T2 construct: purchased Oxford Biomedical Research
Experimental: as §1
Human recombinant PKCα was obtained from Oxford Biomedical Research and is used under the assay conditions as described under Section A.1 above. In this assay, compounds of formula I inhibit PKCα with an IC50≦1 μM.

Human recombinant PKCη = target: T3, Human recombinant PKCη (Homo sapiens, UniProt P24723); assay: Protein Kinase Cη assay; format: biochemical
T3 construct: purchased PanVera
Experimental: as §1, with “IC50 measurement is performed on a routine basis by incubating a serial dilution of inhibitor at concentrations ranging between 1-1000 μM according to the method described above.” left out, “fitting. […]” for “fitting.”

Human recombinant PKCε = target: T4, Human recombinant PKCε (Homo sapiens, UniProt Q02156); assay: Protein Kinase Cε assay; format: biochemical; conditions: read-out: IC50 in Protein Kinase Cε assay (sentence prints PKCδ)
T4 construct: purchased Oxford Biomedical Research
T4 sequence (Q02156 1-737): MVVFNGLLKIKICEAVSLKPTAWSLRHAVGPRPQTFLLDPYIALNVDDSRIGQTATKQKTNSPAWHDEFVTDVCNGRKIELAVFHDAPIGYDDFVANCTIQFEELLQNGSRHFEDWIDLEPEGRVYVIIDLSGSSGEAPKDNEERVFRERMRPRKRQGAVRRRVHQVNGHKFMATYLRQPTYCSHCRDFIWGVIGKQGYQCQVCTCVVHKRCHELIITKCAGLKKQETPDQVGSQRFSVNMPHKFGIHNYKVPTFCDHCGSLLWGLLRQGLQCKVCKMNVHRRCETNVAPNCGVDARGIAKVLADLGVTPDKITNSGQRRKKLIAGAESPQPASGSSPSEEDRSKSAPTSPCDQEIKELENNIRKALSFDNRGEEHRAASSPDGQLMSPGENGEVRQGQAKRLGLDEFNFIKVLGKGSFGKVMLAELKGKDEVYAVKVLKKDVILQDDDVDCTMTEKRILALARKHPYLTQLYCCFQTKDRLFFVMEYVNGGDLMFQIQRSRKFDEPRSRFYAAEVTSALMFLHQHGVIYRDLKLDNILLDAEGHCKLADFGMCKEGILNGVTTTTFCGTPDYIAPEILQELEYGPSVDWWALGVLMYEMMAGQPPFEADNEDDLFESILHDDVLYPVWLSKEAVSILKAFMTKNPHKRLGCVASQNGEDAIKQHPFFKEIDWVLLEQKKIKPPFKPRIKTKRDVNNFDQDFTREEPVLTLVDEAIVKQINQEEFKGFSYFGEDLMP
Experimental: as §1, with “IC50 measurement is performed on a routine basis by incubating a serial dilution of inhibitor at concentrations ranging between 1-1000 μM according to the method described above.” left out, “fitting. […]” for “fitting.”

Human recombinant PKCδ = target: T5, Human recombinant PKCδ (Homo sapiens, UniProt Q05655); assay: Protein Kinase Cδ assay; format: biochemical
T5 construct: purchased Oxford Biomedical Research
Experimental: as §1, with “IC50 measurement is performed on a routine basis by incubating a serial dilution of inhibitor at concentrations ranging between 1-1000 μM according to the method described above.” left out, “fitting. […]” for “fitting.”

GSK-3β = GSK-3β (Homo sapiens, UniProt P49841); assay: Inhibition of GSK-3β; format: biochemical
Experimental: The GSK-3β bidding assay is performed in 50 μl reactions in 96 well polypropylene plate, each reaction containing 20 mM magnesium chloride, 40 μM ATP, 2 mM DTT, 88.5 μM biotinylated and phosphorylated CREB-peptide substrate (biotin-KRREILSRRPS(PO4)YR—OH; Q. M. Wang et al., J. Biol. Chem. 269, 14566-14574, 1994), [γ-^33P]ATP (1 μCi) and 2 μl of the compound to be tested in DMSO (various concentrations). 15 μl of GSK-3β (various concentrations) is added and the mixture is incubated at 30° C. for 1 hour. The reaction is stopped by transferring 25 μl of the mixture to a phosphocellulose plate containing 130 μl of 1.85% phosphoric acid. The free radionucleotides in the membrane are washed off under vacuum with 1.85% phosphoric acid (5 times). After the last wash, the plate is transferred to an adaptor plate and 50 μl of scintillation cocktail (Microscint-20, Packard, cat. # 20-133) is added to each well and the amount of radioactivity is counted in a top counter. Compounds of formula I are active in this assay.

Sequence of Human recombinant PKCθ (Q04759 whole entry, canonical isoform): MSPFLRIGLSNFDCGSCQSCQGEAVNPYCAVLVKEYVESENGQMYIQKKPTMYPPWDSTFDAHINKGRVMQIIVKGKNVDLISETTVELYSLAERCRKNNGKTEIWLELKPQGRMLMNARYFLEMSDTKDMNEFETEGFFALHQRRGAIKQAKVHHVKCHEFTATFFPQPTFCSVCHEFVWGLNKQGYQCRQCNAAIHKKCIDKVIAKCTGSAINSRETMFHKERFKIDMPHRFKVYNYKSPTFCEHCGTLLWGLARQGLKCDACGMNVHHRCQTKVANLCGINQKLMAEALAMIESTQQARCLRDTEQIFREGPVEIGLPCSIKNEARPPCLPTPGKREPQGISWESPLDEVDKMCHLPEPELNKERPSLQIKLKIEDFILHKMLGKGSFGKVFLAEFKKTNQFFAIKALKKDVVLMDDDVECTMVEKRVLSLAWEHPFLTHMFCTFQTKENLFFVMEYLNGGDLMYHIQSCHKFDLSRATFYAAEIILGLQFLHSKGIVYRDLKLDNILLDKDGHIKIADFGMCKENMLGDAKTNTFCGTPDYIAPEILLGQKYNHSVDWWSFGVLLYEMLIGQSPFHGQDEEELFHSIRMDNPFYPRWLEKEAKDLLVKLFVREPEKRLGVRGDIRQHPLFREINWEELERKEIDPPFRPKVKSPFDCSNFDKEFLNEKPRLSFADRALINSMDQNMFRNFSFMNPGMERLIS
T1 sequence (P05771 whole entry): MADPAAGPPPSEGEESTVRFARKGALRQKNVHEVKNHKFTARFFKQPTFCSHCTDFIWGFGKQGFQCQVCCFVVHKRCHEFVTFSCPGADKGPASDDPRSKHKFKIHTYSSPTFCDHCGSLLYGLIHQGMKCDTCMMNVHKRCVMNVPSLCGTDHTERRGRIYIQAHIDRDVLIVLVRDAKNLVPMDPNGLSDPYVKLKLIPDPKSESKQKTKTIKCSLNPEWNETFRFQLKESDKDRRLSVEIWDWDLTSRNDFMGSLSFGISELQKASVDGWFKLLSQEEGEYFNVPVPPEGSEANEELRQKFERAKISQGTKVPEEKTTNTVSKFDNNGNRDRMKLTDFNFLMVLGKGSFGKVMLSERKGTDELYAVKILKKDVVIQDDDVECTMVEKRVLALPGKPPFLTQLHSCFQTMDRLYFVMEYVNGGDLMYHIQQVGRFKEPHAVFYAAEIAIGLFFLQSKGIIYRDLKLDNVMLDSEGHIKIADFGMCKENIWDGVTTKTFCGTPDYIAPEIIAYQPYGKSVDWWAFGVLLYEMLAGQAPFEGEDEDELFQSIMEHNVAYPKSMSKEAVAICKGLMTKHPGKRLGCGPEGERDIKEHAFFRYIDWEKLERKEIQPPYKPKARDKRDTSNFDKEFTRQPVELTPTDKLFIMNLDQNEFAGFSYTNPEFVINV
Sequence of GSK-3β (P49841 whole entry, species assumed): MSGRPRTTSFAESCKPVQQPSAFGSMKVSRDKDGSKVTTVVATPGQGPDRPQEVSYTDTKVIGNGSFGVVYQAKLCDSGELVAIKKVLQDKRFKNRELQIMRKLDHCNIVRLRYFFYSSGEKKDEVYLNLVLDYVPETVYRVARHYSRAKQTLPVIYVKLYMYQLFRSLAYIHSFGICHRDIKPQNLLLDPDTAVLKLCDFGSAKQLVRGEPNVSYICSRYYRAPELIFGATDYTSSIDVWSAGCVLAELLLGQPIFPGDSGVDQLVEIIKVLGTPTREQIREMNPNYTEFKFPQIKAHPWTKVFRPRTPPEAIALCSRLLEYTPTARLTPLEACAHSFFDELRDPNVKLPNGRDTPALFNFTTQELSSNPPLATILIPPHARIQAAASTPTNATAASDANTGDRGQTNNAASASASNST
T3 sequence (P24723 whole entry): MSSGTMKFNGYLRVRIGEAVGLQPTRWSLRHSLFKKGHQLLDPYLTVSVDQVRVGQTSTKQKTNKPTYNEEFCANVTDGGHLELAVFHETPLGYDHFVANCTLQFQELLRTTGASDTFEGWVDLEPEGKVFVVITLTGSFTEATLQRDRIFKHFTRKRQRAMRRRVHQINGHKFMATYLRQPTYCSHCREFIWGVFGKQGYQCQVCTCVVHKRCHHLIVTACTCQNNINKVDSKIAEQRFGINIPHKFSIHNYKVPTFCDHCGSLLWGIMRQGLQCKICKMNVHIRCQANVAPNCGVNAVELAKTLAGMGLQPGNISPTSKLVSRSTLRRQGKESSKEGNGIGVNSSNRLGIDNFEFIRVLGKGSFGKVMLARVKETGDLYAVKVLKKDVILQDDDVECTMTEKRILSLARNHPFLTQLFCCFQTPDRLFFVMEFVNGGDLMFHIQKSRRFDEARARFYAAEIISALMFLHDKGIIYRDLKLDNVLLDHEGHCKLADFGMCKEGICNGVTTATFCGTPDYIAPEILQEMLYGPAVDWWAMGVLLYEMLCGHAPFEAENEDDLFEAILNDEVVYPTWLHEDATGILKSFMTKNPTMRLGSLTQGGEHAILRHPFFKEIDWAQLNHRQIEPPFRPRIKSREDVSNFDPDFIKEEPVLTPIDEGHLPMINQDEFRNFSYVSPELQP
T5 sequence (Q05655 whole entry): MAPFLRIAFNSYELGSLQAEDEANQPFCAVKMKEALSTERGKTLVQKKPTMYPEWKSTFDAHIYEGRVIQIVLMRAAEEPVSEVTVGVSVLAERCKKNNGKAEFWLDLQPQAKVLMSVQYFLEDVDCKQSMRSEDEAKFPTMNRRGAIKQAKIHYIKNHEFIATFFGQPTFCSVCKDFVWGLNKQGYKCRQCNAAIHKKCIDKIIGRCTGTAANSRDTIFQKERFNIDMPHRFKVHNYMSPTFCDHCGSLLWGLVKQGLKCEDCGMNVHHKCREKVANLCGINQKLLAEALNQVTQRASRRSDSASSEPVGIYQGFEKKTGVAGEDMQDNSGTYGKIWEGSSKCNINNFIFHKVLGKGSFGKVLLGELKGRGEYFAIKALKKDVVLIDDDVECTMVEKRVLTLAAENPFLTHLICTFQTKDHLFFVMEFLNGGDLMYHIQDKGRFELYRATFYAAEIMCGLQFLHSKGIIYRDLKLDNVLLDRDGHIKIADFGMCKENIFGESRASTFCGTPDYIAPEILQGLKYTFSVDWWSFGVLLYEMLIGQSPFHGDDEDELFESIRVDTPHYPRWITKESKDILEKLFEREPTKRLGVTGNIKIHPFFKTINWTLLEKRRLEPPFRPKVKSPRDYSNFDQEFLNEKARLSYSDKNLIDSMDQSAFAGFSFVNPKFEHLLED

IC50 (Human recombinant PKCθ) [nM]	IC50 (Human recombinant PKCβ1) [nM]	IC50 [1] [nM]	IC50 [2] [nM]	IC50 (Human recombinant PKCα) [nM]	IC50 (Human recombinant PKCη) [nM]	IC50 (Human recombinant PKCε) [nM]	IC50 (Human recombinant PKCδ) [nM]	IC50 (GSK-3β) [nM]	SMILES	inhibition of lymph node enlargement (lymph node enlargement; 10 mg/kg bid) [%]	inhibition of lymph node enlargement (lymph node enlargement; 30 mg/kg bid) [%]
5.8	–	–	–	–	–	–	–	–	CN1CCN(c2ccc(Cl)c(C3=C(c4c[nH]c5ccccc45)C(=O)NC3=O)n2)CC1 [Example 10]	100	–
–	13.2	46.7	285	6.3	–	–	–	–	CN(C)Cc1cc2c(C3=C(c4cn(C)c5ccccc45)C(=O)NC3=O)cccc2[nH]1 [Example 39]	–	–
9.3	14.9	28.3	32.5	7.5	15	7.6	29.5	25	Cc1cccc2c(C3=C(c4c(Cl)ccc5[nH]c(CN(C)C)cc45)C(=O)NC3=O)c[nH]c12 [Example 41]	–	–
5.4	5.9	13	28.8	2.9	15.3	14.7	21	18	CN1CCN(c2ccc(C(F)(F)F)c(C3=C(c4c[nH]c5ccccc45)C(=O)NC3=O)n2)CC1 [Example 1, 3-(1H-Indol-3-yl)-4-[6-(4-methyl-piperazin-1-yl)-3-tifluoromethyl-pyridin-2-yl]-pyrrole-2,5-dione]	–	100
